Assay results taken from the NIST ThermoML archive (doi:10.1016/j.jct.2007.07.005).

Test: xn = mol fraction of the nth substance listed
Details: Fluid (supercritical or subcritical phases), vibrating tube

CCCCCO [pentan-1-ol] + O=C=O
Details | mass density [kg/m3]
312.96 K, 512 kPa, x2 = 0 | 799.65
312.96 K, 1022 kPa, x2 = 0 | 800.04
312.96 K, 1998 kPa, x2 = 0 | 800.77
312.96 K, 3005 kPa, x2 = 0 | 801.53
312.96 K, 4003 kPa, x2 = 0 | 802.28
312.96 K, 5002 kPa, x2 = 0 | 803.02
312.96 K, 6018 kPa, x2 = 0 | 803.76
312.96 K, 6994 kPa, x2 = 0 | 804.49
312.96 K, 8008 kPa, x2 = 0 | 805.21
312.96 K, 9005 kPa, x2 = 0 | 805.93
312.96 K, 10008 kPa, x2 = 0 | 806.66
312.96 K, 11008 kPa, x2 = 0 | 807.37
312.96 K, 12000 kPa, x2 = 0 | 808.07
312.96 K, 13024 kPa, x2 = 0 | 808.78
312.96 K, 13987 kPa, x2 = 0 | 809.45
312.96 K, 15014 kPa, x2 = 0 | 810.14
312.96 K, 15991 kPa, x2 = 0 | 810.8
312.96 K, 17019 kPa, x2 = 0 | 811.48
312.96 K, 17991 kPa, x2 = 0 | 812.12
312.96 K, 19007 kPa, x2 = 0 | 812.79
312.96 K, 19992 kPa, x2 = 0 | 813.44
312.96 K, 21031 kPa, x2 = 0 | 814.1
312.96 K, 22041 kPa, x2 = 0 | 814.76
312.96 K, 23014 kPa, x2 = 0 | 815.41
312.96 K, 24003 kPa, x2 = 0 | 816.04
312.96 K, 25037 kPa, x2 = 0 | 816.73
313.09 K, 6030 kPa, x2 = 0.3624 | 824
313.09 K, 6997 kPa, x2 = 0.3624 | 825.21
313.09 K, 8012 kPa, x2 = 0.3624 | 826.4
313.09 K, 9018 kPa, x2 = 0.3624 | 827.51
313.09 K, 10006 kPa, x2 = 0.3624 | 828.5
313.09 K, 11027 kPa, x2 = 0.3624 | 829.51
313.09 K, 12043 kPa, x2 = 0.3624 | 830.52
313.09 K, 13029 kPa, x2 = 0.3624 | 831.45
313.09 K, 13978 kPa, x2 = 0.3624 | 832.37
313.09 K, 15011 kPa, x2 = 0.3624 | 833.36
313.09 K, 16002 kPa, x2 = 0.3624 | 834.27
313.09 K, 17008 kPa, x2 = 0.3624 | 835.17
313.09 K, 17989 kPa, x2 = 0.3624 | 836.08
313.09 K, 19002 kPa, x2 = 0.3624 | 837
313.09 K, 20008 kPa, x2 = 0.3624 | 837.88
313.09 K, 21025 kPa, x2 = 0.3624 | 838.76
313.09 K, 21983 kPa, x2 = 0.3624 | 839.58
313.09 K, 23039 kPa, x2 = 0.3624 | 840.51
313.09 K, 24001 kPa, x2 = 0.3624 | 841.34
313.1 K, 7022 kPa, x2 = 0.4651 | 831.11
313.1 K, 8019 kPa, x2 = 0.4651 | 832.63
313.1 K, 9041 kPa, x2 = 0.4651 | 834.14
313.1 K, 10006 kPa, x2 = 0.8067 | 827.85
313.1 K, 10013 kPa, x2 = 0.4651 | 835.54
313.1 K, 10035 kPa, x2 = 0.9757 | 716.11
313.1 K, 11006 kPa, x2 = 0.8067 | 834.45
313.1 K, 11016 kPa, x2 = 0.4651 | 836.96
313.1 K, 11020 kPa, x2 = 0.9757 | 742.56
313.1 K, 11992 kPa, x2 = 0.9757 | 762.5
313.1 K, 12018 kPa, x2 = 0.4651 | 838.32
313.1 K, 12019 kPa, x2 = 0.8067 | 840.12
313.1 K, 13002 kPa, x2 = 0.8067 | 845.06
313.1 K, 13005 kPa, x2 = 0.4651 | 839.67
313.1 K, 13014 kPa, x2 = 0.9757 | 779.62
313.1 K, 13996 kPa, x2 = 0.8067 | 849.67
313.1 K, 14022 kPa, x2 = 0.9757 | 793.9
313.1 K, 14035 kPa, x2 = 0.4651 | 841.03
313.1 K, 15002 kPa, x2 = 0.9757 | 806.06
313.1 K, 15010 kPa, x2 = 0.4651 | 842.33
313.1 K, 15017 kPa, x2 = 0.8067 | 854.05
313.1 K, 16001 kPa, x2 = 0.9757 | 817.16
313.1 K, 16018 kPa, x2 = 0.4651 | 843.63
313.1 K, 16028 kPa, x2 = 0.8067 | 858.11
313.1 K, 17009 kPa, x2 = 0.8067 | 861.86
313.1 K, 17011 kPa, x2 = 0.4651 | 844.89
313.1 K, 17026 kPa, x2 = 0.9757 | 827.46
313.1 K, 17998 kPa, x2 = 0.9757 | 836.37
313.1 K, 18010 kPa, x2 = 0.4651 | 846.15
313.1 K, 18017 kPa, x2 = 0.8067 | 865.48
313.1 K, 18996 kPa, x2 = 0.4651 | 847.39
313.1 K, 19027 kPa, x2 = 0.8067 | 868.98
313.1 K, 19034 kPa, x2 = 0.9757 | 845.17
313.1 K, 19996 kPa, x2 = 0.8067 | 872.2
313.1 K, 20005 kPa, x2 = 0.9757 | 852.85
313.1 K, 20038 kPa, x2 = 0.4651 | 848.66
313.1 K, 20988 kPa, x2 = 0.4651 | 849.83
313.1 K, 20988 kPa, x2 = 0.9757 | 860.09
313.1 K, 21011 kPa, x2 = 0.8067 | 875.4
313.1 K, 21994 kPa, x2 = 0.9757 | 867.1
313.1 K, 22004 kPa, x2 = 0.8067 | 878.43
313.1 K, 22029 kPa, x2 = 0.4651 | 851.07
313.1 K, 22839 kPa, x2 = 0.9757 | 872.7
313.1 K, 22988 kPa, x2 = 0.4651 | 852.24
313.1 K, 22990 kPa, x2 = 0.8067 | 881.33
313.11 K, 3017 kPa, x2 = 0.0816 | 805.83
313.11 K, 4040 kPa, x2 = 0.0816 | 806.66
313.11 K, 5020 kPa, x2 = 0.0816 | 807.44
313.11 K, 6033 kPa, x2 = 0.0816 | 808.27
313.11 K, 6980 kPa, x2 = 0.0816 | 809.01
313.11 K, 8003 kPa, x2 = 0.0816 | 809.81
313.11 K, 9050 kPa, x2 = 0.0816 | 810.62
313.11 K, 10006 kPa, x2 = 0.0816 | 811.35
313.11 K, 10023 kPa, x2 = 0.9216 | 783.1
313.11 K, 11007 kPa, x2 = 0.9216 | 796.3
313.11 K, 11029 kPa, x2 = 0.0816 | 812.13
313.11 K, 12014 kPa, x2 = 0.9216 | 807.61
313.11 K, 12040 kPa, x2 = 0.0816 | 812.89
313.11 K, 13034 kPa, x2 = 0.0816 | 813.62
313.11 K, 13034 kPa, x2 = 0.9216 | 817.54
313.11 K, 14013 kPa, x2 = 0.9216 | 826.1
313.11 K, 14032 kPa, x2 = 0.0816 | 814.36
313.11 K, 15008 kPa, x2 = 0.0816 | 815.08
313.11 K, 15032 kPa, x2 = 0.9216 | 834.15
313.11 K, 16011 kPa, x2 = 0.9216 | 841.25
313.11 K, 16019 kPa, x2 = 0.0816 | 815.8
313.11 K, 17000 kPa, x2 = 0.9216 | 847.91
313.11 K, 17024 kPa, x2 = 0.0816 | 816.51
313.11 K, 18011 kPa, x2 = 0.9216 | 854.26
313.11 K, 18058 kPa, x2 = 0.0816 | 817.22
313.11 K, 18990 kPa, x2 = 0.0816 | 817.88
313.11 K, 19003 kPa, x2 = 0.9216 | 860.12
313.11 K, 20009 kPa, x2 = 0.9216 | 865.74
313.11 K, 20043 kPa, x2 = 0.0816 | 818.6
313.11 K, 20983 kPa, x2 = 0.9216 | 870.88
313.11 K, 21042 kPa, x2 = 0.0816 | 819.28
313.11 K, 22024 kPa, x2 = 0.0816 | 819.97
313.11 K, 23035 kPa, x2 = 0.0816 | 820.66
